Assay results published in patent US11045542B2, “Method of reducing reactogenicity induced by administration of vaccine or immunogenic composition” (GLAXOSMITHKLINE BIOLOGICALS, SA, priority 2015, dated 2021).

Assays:
Format in all cases: in vivo, Mice
[1] = test system: local immune cells at the injection site (muscle); assay: Effect of MaR1 on the local immune cells profile induced by adjuvant injection (flow cytometry of muscle cells); details: MaR1 5 ng/dose intramuscularly 1 h prior to AS01B
Procedure: Mice (n=6/gr) were injected intramuscularly with synthetic 7-Maresin-1 (MaR1) (5 ng/dose) or PBS as a control. 1 h later, mice received intramuscularly adjuvant AS01B or PBS. Muscles were collected at 4 h and 24 h following 7-Maresin-1/PBS administration and local immune cells were extracted. The cells were stained with the following antibodies: Lytic, SiglecF, CD90.2, Ly6G, CD11b, CD11c, HLA DR, CD45 and CD19 and analysed by flow cytometry. The cell recruitment is expressed in number of cells per muscle. The plotted area represents the mean obtained for a specific subpopulation. A 2-way ANOVA was performed to compare the different groups. *: p<0.05. The chemical structure of the synthetic MaR1 used in the present experiment is identical to the chemical structure of MaR1 disclosed in Buckley et al. (“Proresolving Lipid Mediators and Mechanisms in the Resolution of Acute Inflammation”, 2014, Immunity 40: 315-327).

[2] = test system: cytokines (TNFα, IL-6, IL1b and INFγ) and chemokine (G-CSF, MCP-1, KC and MIP-1a) levels in muscle; assay: Effect of MaR1 on the local cytokine profile induced by adjuvant injection (CBA on muscle homogenates); details: MaR1 5 ng/dose intramuscularly 1 h prior to AS01B; 4 h post-injection of the MaR1
Procedure: Mice (n=6/gr) were injected intramuscularly with the same synthetic MaR1 as the one used in Example 2 (5 ng/dose), or PBS as a control. 1 h later, mice received intramuscularly adjuvant AS01B or PBS. Muscles were collected at 4 h and 24 h following MaR1/PBS administration and frozen at −70° C. Muscles were thawed and homogenized and cytokines (TNFα, IL-6, IL1b and INFγ) and chemokine (G-CSF, MCP-1, KC and MIP-1a) levels in the cleared homogenates were measured by CBA (Becton Dickinson). The cytokine/chemokine concentrations are expressed in pg/mL. The plotted area represents the mean obtained for a specific cytokine/chemokine. A 2-way ANOVA was performed to compare the different groups. *: p<0.05 (See FIG. 4).

[3] = test system: CD4+ or CD8+ T cells expressing at least 2 cytokines; assay: Effect of MaR1 on specific T cell responses induced by vaccine injection (intracellular cytokine staining of spleen cells); details: MaR1 5 ng/dose intramuscularly 1 h prior to OVA and HBS antigens in AS01B; vs antigens and adjuvant alone
Procedure: Mice (n=30/gr) were injected intramuscularly with the same synthetic MaR1 as the one used in Example 2 (5 ng/dose) or PBS as a control. 1 h later, mice were vaccinated with OVA (Ovalbumin) and HBS (Hepatitis B Surface) antigens re-suspended in adjuvant AS01B or in PBS. This vaccination scheme was repeated 15 days later. Spleens were removed 7 days after the second immunization, and immune cells were extracted and stimulated overnight with OVA (A) or HBS (B) peptides. After surface staining with anti-CD4 and anti-CD8 antibodies, cells were labeled intra-cellularly with anti-IL-2, anti-IFN-γ and anti-TNF-α and analyzed by flow cytometry. Results are expressed as percentages of CD4+ or CD8+ T cells expressing at least 2 cytokines among the ones tested. Each point represents an individual value, the bar represents the mean+/−SD (see FIG. 5).

[4] = test system: Anti-OVA or anti-HBs antibodies; assay: Effect of MaR1 on specific antibody responses induced by vaccine injection (ELISA on sera); details: MaR1 5 ng/dose intramuscularly 1 h prior to OVA and HBS antigens in AS01B; vs antigens and adjuvant alone
Procedure: Mice (n=30/gr) were injected intramuscularly with the same synthetic MaR1 as the one used in Example 2 (5 ng/dose), or PBS as a control. 1 h later, mice were vaccinated with OVA and HBS antigens re-suspended in adjuvant AS01B or in PBS. This vaccination scheme was repeated 15 days later. Sera were taken 7 days after the second immunization. Anti-OVA (A) or anti-HBs (B) antibodies were detected by ELISA. Antibody titers are expressed in ng/mL. Each point represents an individual value; the bar represents the mean+/−SD. (See FIG. 6).

[5] = test system: local immune cells at the injection site (muscle); assay: Effect of RvE1 on the local immune cells profile induced by adjuvants injection (flow cytometry of muscle cells); details: muscles at 24 h
Procedure: Mice (n=6/gr) were injected intramuscularly with PBS, AS03 adjuvant (oil-in-water emulsion) or AS01B adjuvant (MPL+QS21 in liposomes). 1 h and 6 h later, synthetic RvE1 (0.2 μg/dose) or PBS was administered also intramuscularly. Muscles were collected at 24 h following adjuvant/PBS administration and local immune cells were extracted. The cells were stained with the following antibodies: Lytic, SiglecF, CD90.2, Ly6G, CD11b, CD11c, HLA DR, CD45 and CD19 and analysed by flow cytometry. The cell recruitment is expressed in number of cells per muscle. The plotted area represents the mean obtained for a specific subpopulation. A 2-way ANOVA was performed to compare the different groups. *: p<0.05. The chemical structure of the synthetic RvE1 used in the present experiment is identical to the chemical structure of RvE1 disclosed in Buckley et al. (“Proresolving Lipid Mediators and Mechanisms in the Resolution of Acute Inflammation”, 2014, Immunity 40: 315-327).

[6] = test system: cytokines (TNFα, IL-6, IL1b and IFNγ) and chemokine (G-CSF, MCP-1, KC and MIP-1a) levels in muscle; assay: Effect of RvE1 on the local cytokine profile induced by adjuvants injection (CBA on muscle homogenates)
Procedure: Mice (n=6/gr) were injected intramuscularly with PBS, adjuvant AS03 or adjuvant AS01B. 1 h and 6 h later, the same synthetic RvE1 as the one used in Example 1 (0.2 μg/dose), or PBS was administered also intramuscularly. Muscles were collected at 4 h (A) and 24 h (B) following adjuvant or PBS administration and frozen at −70° C. Muscles were thawed and homogenized and cytokines (TNFα, IL-6, IL1b and IFNγ) and chemokine (G-CSF, MCP-1, KC and MIP-1a) levels in the cleared homogenates were measured by CBA (Becton Dickinson). The cytokine/chemokine concentrations are expressed in pg/mL. The plotted area represents the mean obtained for a specific cytokine/chemokine. A 2-way ANOVA was performed to compare the different groups. *: p<0.05 (See FIG. 3).

CC/C=C\C/C=C\C[C@H](O)\C=C/C=C/C=C/[C@H](O)C/C=C\CCC(=O)O [MaR1, 7-Maresin-1]
pattern of immune cells at the injection site ([1]; 4 h post-injection): may be too early to detect an effect | pattern of immune cells at the injection site ([1]; 24 h post-injection): increase of B cells and T cells recruitment on site | modulation of local cytokines/chemokines profile [2]: significant transient modulating effect | CD4+ T cell response induced by adjuvanted vaccine [3]: did not negatively impact the T cell immune response | CD8+ T cell response induced by adjuvanted vaccine [3]: did not negatively impact the T cell immune response | anti-HBS antibody response induced by adjuvanted vaccine [4]: did not negatively impact the antibody immune response | anti-OVA antibody response induced by adjuvanted vaccine [4]: did not negatively impact the antibody immune response

CC[C@@H](O)/C=C/C=C\C[C@@H](O)/C=C/C=C/C=C\[C@@H](O)CCCC(=O)O [RvE1, Resolvin E1]
recruitment of immune cells at the injection site (number of cells per muscle) ([5]; RvE1 0.2 μg/dose intramuscularly 1 h and 6 h after AS01B, vs AS01B alone): The same conclusion holds true | recruitment of immune cells at the injection site (number of cells per muscle) ([5]; RvE1 0.2 μg/dose intramuscularly 1 h and 6 h after AS03, vs AS03 alone): significantly reduced recruitment of all the immune cell types tested | pattern of immune cells at the injection site ([5]; RvE1 on its own with PBS alone, compared with PBS alone): only a minimal effect on the pattern of immune cells | modulation of local cytokines/chemokines concentration ([6]; RvE1 0.2 μg/dose intramuscularly after AS01B, 4 h post-injection of the adjuvant): no significant modulating effect was observed | modulation of local cytokines/chemokines concentration ([6]; RvE1 0.2 μg/dose intramuscularly after AS01B, 24 h post-injection of the adjuvant): no significant modulating effect was observed | modulation of local cytokines/chemokines concentration ([6]; RvE1 0.2 μg/dose intramuscularly after AS03, 4 h post-injection of the adjuvant): a significant modulating effect was observed | modulation of local cytokines/chemokines concentration ([6]; RvE1 0.2 μg/dose intramuscularly after AS03, 24 h post-injection of the adjuvant): no significant effect was observed
